Assay results published in BigSolDB 2.1.

[NH3+]O.[NH3+]O.[O-]n1nnnc1-c1nnnn1[O-]
solubility (mole fraction)
Conditions | 298.15 K | 303.15 K | 308.15 K | 313.15 K | 318.15 K | 323.15 K | 328.15 K | 333.15 K
in acetic acid | 7.44e-05 | 8.86e-05 | 0.000105 | 0.000125 | 0.000146 | 0.000171 | 0.000199 | 0.000231
in ethanol | 1.35e-05 | 1.54e-05 | 1.76e-05 | 2.01e-05 | 2.27e-05 | 2.56e-05 | 2.88e-05 | 3.24e-05
in formic acid | 0.00144 | 0.00163 | 0.00183 | 0.00205 | 0.00229 | 0.00254 | 0.00283 | 0.00313
in water | 0.000128 | 0.000156 | 0.00019 | 0.000228 | 0.000274 | 0.000325 | 0.000385 | 0.000456
